Assay [1] has as its target T1, M1-type muscarinic cholinergic receptor (Rattus norvegicus, UniProt P08482).
T1 sequence (P08482 1-460): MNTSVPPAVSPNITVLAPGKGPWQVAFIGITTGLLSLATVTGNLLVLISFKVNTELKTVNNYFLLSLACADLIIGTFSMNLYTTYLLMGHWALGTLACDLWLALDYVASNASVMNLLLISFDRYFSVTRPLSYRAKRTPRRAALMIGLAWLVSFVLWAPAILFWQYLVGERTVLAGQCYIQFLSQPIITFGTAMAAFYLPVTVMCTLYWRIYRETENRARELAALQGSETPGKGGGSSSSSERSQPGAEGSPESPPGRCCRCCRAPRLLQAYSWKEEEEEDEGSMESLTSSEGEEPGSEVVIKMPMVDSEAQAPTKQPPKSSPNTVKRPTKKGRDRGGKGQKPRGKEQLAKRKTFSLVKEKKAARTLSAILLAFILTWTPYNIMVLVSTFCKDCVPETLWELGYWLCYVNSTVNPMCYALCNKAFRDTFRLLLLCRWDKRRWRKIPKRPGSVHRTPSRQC
The assay is described as follows: Test for affinity for the M1-type muscarinic cholinergic receptor (displacement of [3H]pirenzepine). Format: binding. Particulars: for r = (M2/M1), ratio of the IC50 values (selectivity): M2 IC50 (guinea-pig ileum) / M1 IC50 (rat hippocampus); for IC50: homogenate of rat hippocampus, [3H]PZ 1 nM, 2 h at 4° C., pH 7.40.
Method: (A) Test for Affinity for the M1 -Type Muscarinic Cholinergic Receptor
The interaction of the molecules with M1 -type muscarinic receptors was studied by in vitro measurement, on a homogenate of rat hippocampus, of the displacement of tritiated pirenzepine ([^3 H]PZ) from its specific binding sites. Aliquots (10 μl) of a 5% (w/v) homogenate of rat hippocampus in an Na2 HPO4 buffer (50 mM, pH 7.40) are incubated for 2 h at 4° C. in the presence of [^3 H]PZ (76 Ci/nmol; final concentration: 1 nM) and increasing concentrations of products to be studied. The final volume is 2 ml. The reaction is stopped by centrifugation for 10 min at 50,000×g. After decantation and washing of the residues, the bound radioactivity is counted by liquid scintillation. The non-specific binding is determined in the presence of 10 μmol/l of atropine sulfate. The 50% inhibitory concentration (IC50) is determined graphically (Ref.: Watson J. D., Roeskoe W. R. and Yamamura H. I., Life Sci., 31, 2019-2029, 1982).

Assay [2] addresses T2, M2-type muscarinic cholinergic receptor (Cavia porcellus, UniProt H0VRN8).
T2 construct: on a homogenate of smooth muscle of guinea-pig ileum; from tissue; host or cells: guinea-pig ileum smooth muscle homogenate
T2 sequence (H0VRN8 1-466): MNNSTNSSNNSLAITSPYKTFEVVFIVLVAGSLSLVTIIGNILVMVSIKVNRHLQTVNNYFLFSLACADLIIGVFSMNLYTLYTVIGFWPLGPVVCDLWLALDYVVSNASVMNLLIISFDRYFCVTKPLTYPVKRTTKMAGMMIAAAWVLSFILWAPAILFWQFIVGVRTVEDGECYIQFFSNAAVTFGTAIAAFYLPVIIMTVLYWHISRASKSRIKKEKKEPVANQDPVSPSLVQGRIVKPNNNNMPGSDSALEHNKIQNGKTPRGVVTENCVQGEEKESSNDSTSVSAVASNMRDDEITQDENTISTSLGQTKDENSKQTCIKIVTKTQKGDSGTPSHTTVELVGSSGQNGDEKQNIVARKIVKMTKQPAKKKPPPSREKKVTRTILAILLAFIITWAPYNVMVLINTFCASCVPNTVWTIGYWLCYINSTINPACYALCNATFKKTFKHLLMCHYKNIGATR
The assay is described as follows: Test for affinity for the M2-type muscarinic cholinergic receptor (displacement of [3H]N-methylscopolamine). To be noted: homogenate of smooth muscle of guinea-pig ileum, [3H]NMS 0.3 nM, 20 min at 30° C., pH 7.5. Format: binding. The text has this: The M1 -type receptors are concentrated in certain areas of the brain, such as the hippocampus, the cerebral cortex and the striatum, and also in the sympathetic ganglia. These binding sites can be selectivity labeled with [^3 H] pirenzepine ([^3 H]PZ). The M2 -type receptors predominate in the heart and ileum and can be labeled with [^3 H] N-methylscopolamine ([^3 H]NMS). To determine the selectivity of the products of the invention towards the M1 and M2 sites, we studied their interaction in vitro with [^3 H]PZ and [^3 H]NMS bound with a high affinity to membranes of rat hippocampus and membranes of smooth muscle of guinea-pig ileum, respectively.
(B) Test for Affinity for the M2 -Type Muscarinic Cholinergic Receptor
The interaction with M2 -type muscarinic receptors was studied by in vitro measurement, on a homogenate of smooth muscle of guinea-pig ileum, of the displacement of tritiated N-methylscopolamine ([^3 H]NMS) from its specific binding sites. Aliquots (50 μl) of a 0.625% (w/v) homogenate of smooth muscle of guinea-pig ileum in MEPES buffer (20 mM) containing NaCl (100 mM) and MgCl2 (10 mM) (final pH: 7.5) are incubated for 20 min at 30° C. in the presence of [^3 H]NMS ([…]; final concentration: 0.3 nM) and increasing concentrations of products to be tested. The final volume is 1 ml. The reaction is stopped by centrifugation for 5 min at 15,000×g. The non-specific binding is determined in the presence of 10 μmol/l of atropine sulfate. (Ref.: Hammer R., Berrie C. P., Birdsall N. I. M., Burgen A. S. V. and Hulme E. C., Nature, 283, 90-92, 1980; Hulme E. C., Birdsall N. I. M., Burgen A. S. V. and Mettha P., Mol. Pharmacol., 14, 737-750, 1978).
Table 2 indicates the affinities of the products of the invention for M1 and M2 receptors. The results are expressed as 50% inhibitory concentrations (IC50), i.e. the concentration (in μM) which causes a 50% displacement of the tritiated ligand bound to the membrane receptors. The IC50 for displacement of ^3 H-pirenzepine represents the affinity for the M1 receptor; the IC50 for displacement of ^3 H-NMS represents the affinity for the M2 receptor.

The subject of assay [3] is M1 central muscarinic cholinergic receptors. Put plainly: Antagonism of rotational behavior induced by intrastriatal injection of pirenzepine in mice. Particulars: i.p., 15 minutes before pirenzepine, * p<0.05, ** p<0.01 vs control animals. The assay is classed as in vivo, mice (Swiss, CD 1, female). The procedure: Pirenzepine (PZ) is a specific antagonist of M1 central muscarinic cholinergic receptors. The intrastriatal injection of PZ into mice induces rotational behavior. The antagonism of this behavior by the products according to the invention was studied. The products according to the invention are injected intraperitoneally (i.p.) after solubilization in distilled water or suspension in a 5% solution of gum arabic. The control animals receive an injection of the pure solvent under the same conditions. The animals used are female mice (Swiss, CD 1, Charles River, France) with a body weight of between 25 and 30 grams. Pirenzepine is dissolved in a phosphate buffer; the pH of the solution is 6. The products to be studied or their solvents are injected intraperitoneally, in a volume of 0.4 ml per 20 g of body weight, 15 minutes before a direct injection of pirenzepine at a dose of […] into the right striatum of the mouse, according to the method described by P. WORMS et al. in Eur. J. Pharmacol., 1986, 121, 395-401. The number of contralateral rotations (rotations in the opposite direction to the side injected) was counted for three 2-minute periods after the injection of pirenzepine: minutes 2 to 4, 8 to 10 and 13 to 15. Each treatment includes 1 to 3 doses and 10 animals per dose. For each treatment, the total number of rotations and the percentage antagonism compared with the control group are calculated.

SMILES strings stand for the structures.

For `Cl.Cl.c1ccc2c(c1)OCc1cc(NCCN3CCOCC3)nnc1-2` [SR 96094 A, 2-(2-Morpholinoethylamino)-9,10-dihydro-9-oxa-3,4-diazaphenanthrene dihydrochloride], the “r = (M2/M1), ratio of the IC50 values (selectivity)” value (“r = (M2/M1), ratio … (selectivity)” for short) in assay [1] is given as over 27. For the same compound, the IC50 in assay [1] was 3.6 µM; in assay [2], over 100 µM. Moreover, the “Pirenzepine antagonism (percentage antagonism compared with control group, rotations)” value in assay [3] (3 mg/kg) was -8%; in assay [3] (10 mg/kg), -20%; in assay [3] (30 mg/kg), -85%.
Consider `CCN(CC)CCNc1cc2oc3ccccc3c2nn1` [SR 45040 A], for which, in assay [1], the “r = (M2/M1), ratio … (selectivity)” value amounted to 64 and the IC50 is 0.7 µM. Moreover, in assay [2], the concentration for half-maximal inhibition (IC50) was 45 µM. For the same compound, the “Pirenzepine antagonism (percentage antagonism compared with control group, rotations)” value in assay [3] (3 mg/kg) is listed as -47%.
For `Cl.Cl.c1ccc2c(c1)oc1cc(NCCN3CCOCC3)nnc12` [SR 44288 A, 2-(2-Morpholinoethylamino)-9-oxa-3,4-diazafluorene dihydrochloride], the “r = (M2/M1), ratio … (selectivity)” value in assay [1] is over 33. Also, the half-inhibitory concentration (IC50) in assay [1] is 3 µM; in assay [2] it was over 100 µM. Besides, the “Pirenzepine antagonism (percentage antagonism compared with control group, rotations)” value in assay [3] (3 mg/kg) is -32%; in assay [3] (10 mg/kg) it was -52%; in assay [3] (30 mg/kg) it was -100%.
For `CCN(CC)CCNc1cc2c(nn1)-c1ccccc1SC2.Cl.Cl` [SR 96056 A, 2-(2-Diethylaminoethylamino)-9,10-dihydro-9-thia-3,4-diazaphenanthrene dihydrochloride], in assay [1], the “r = (M2/M1), ratio … (selectivity)” value is on record as 24. Moreover, the IC50 in assay [1] turned out to be 0.15 µM; in assay [2] it was 3.6 µM. The figures for the “Pirenzepine antagonism (percentage antagonism compared with control group, rotations)” value in assay [3] (3 mg/kg), in assay [3] (10 mg/kg) and in assay [3] (30 mg/kg) were -14%, -55% and -79%, respectively.
For `CCN(CC)CCCNc1cc2oc3ccccc3c2nn1` [SR 45041 A], in assay [1], the “r = (M2/M1), ratio … (selectivity)” value is listed as 100 and the concentration for half-maximal inhibition (IC50) is 0.1 µM. In addition, the 50% inhibitory concentration (IC50) in assay [2] was 10 µM. Also, in assay [3] (3 mg/kg), the “Pirenzepine antagonism (percentage antagonism compared with control group, rotations)” value is on record as -72%.
`Cl.Cl.c1ccc2c(c1)sc1cc(NCCN3CCOCC3)nnc12` [SR 44289 A, 2-(2-Morpholinoethylamino)-9-thia-3,4-diazafluorene dihydrochloride]: in assay [1], the “r = (M2/M1), ratio … (selectivity)” value stood at 28. The results for the IC50 in assay [1] and in assay [2] were 3.5 µM and 100 µM, respectively. The entries for the “Pirenzepine antagonism (percentage antagonism compared with control group, rotations)” value in assay [3] (3 mg/kg) and in assay [3] (10 mg/kg) were -42% and -85%, respectively.
On to `CCN1CCCC1CNc1cc2oc3ccccc3c2nn1` (centres unmarked) [SR 45042 A], for which, in assay [1], the “r = (M2/M1), ratio … (selectivity)” value turned out to be 500 and the IC50 turned out to be 0.1 µM. Further, in assay [2], the half-maximal inhibitory concentration (IC50) is 50 µM. Besides, the “Pirenzepine antagonism (percentage antagonism compared with control group, rotations)” value in assay [3] (3 mg/kg) is -52%.
